Marks after values point to notes of the source that are not given here.
Key:
mice T-lymphocyte = assay: Mice T-lymphocyte transformation in vivo (i.p. dosing 20 days, spleen cells + ConA, MTT, stimulation index); set-up: species or system BALB/c mice; details: for Effect on mice T-lymphocyte transformation in vivo: at suitable dosages, vs saline control P<0.05
Description: Animals were randomized into two peptide groups (200 μg/kg/day and 50 μg/kg/day), Cyclosporine A group (10 mg/kg/day), and saline group (0.5 ml/day). Each group contained 10 mice, in which half were female and half were male. All test substances were dissolved in 0.5 ml saline and administered intraperitoneally once per day for 20 days. T-lymphocyte transformation and NK cell activity were examined on the day immediately following the last injection. The day after the last test substance administration, the mice were sacrificed by cervical dislocation. The spleens were isolated aseptically and manually dispersed in 10% FBS RPMI-1640 solution using an injection needle. The dispersed cell suspension was further sieved through a 100 gauge 150 μm diameter stainless steel sieve and adjusted to 4×10^6/ml. The cell suspensions were inoculated onto a 96 wells cell culture plate, 100 μl/well with the following design. Assay wells: 100 μl cell suspension+100 μl ConA Control wells: 100 μl cell suspension+100 μl RPMI-1640 Four assay and four control wells were set up for each animal. The plates were incubated at 37° C., 5% CO2 for 68 hours. MTT was then added and the plates read at OD 570 nm referenced at 630 nm with ELISA reader. Stimulation Index SI (%)=(assay well OD/control well OD)×100%.

mice NK cell = assay: Mice NK cell activity in vivo (i.p. dosing 20 days, spleen effector cells vs YAC-1 target cells, MTT); set-up: species or system BALB/c mice
Description: Animals were randomized into two peptide groups (200 μg/kg/day and 50 μg/kg/day), Cyclosporine A group (10 mg/kg/day), and saline group (0.5 ml/day). Each group contained 10 mice, in which half were female and half were male. All test substances were dissolved in 0.5 ml saline and administered intraperitoneally once per day for 20 days. T-lymphocyte transformation and NK cell activity were examined on the day immediately following the last injection. YAC-1 target cells were brought to log phase and adjusted to a density of 1×10^5/ml. Mice spleen cells prepared in section 2.2.2 above were adjusted to a density of 4×10^6/ml and used as effector cells. The cell suspensions were inoculated onto 96 wells cell culture plates as follows: Effector cell wells: 100 μl spleen cell suspension+100 μl RPMI-1640 Assay wells: 100 μl spleen cell suspension+100 μl YAC-1 cell suspension Target cell wells: 100 μl YAC-1 cell suspension+100 μl RPMI-1640 Three assay wells and three effector cell wells were set up for each animal, and 12 target cell wells were set up per cell culture plate. The plates were incubated at 37° C., 5% CO2 for 4 hours, then MTT was added and the plates were read at OD 570 nm referenced at 630 nm with ELISA reader. NK cell activity (%)=1−[(assay wells OD−effector cell wells OD)/target cell wells OD]×100%

S180 sarcoma cells = assay: Growth of KM mice-transplanted S180 sarcoma cells in vivo; set-up: unit not given here; details: for Sarcoma volume: V=(1/6)πABC, saline 1.20 ± 0.28
Description: S180 sarcoma cells were transplanted intraperitoneally into KM mice for 6-8 days and the ascites aseptically collected. The cell concentration was adjusted to 1×10^7 per ml with 10% FBS RPMI-1640, and 0.2 ml cell suspension was injected through the armpit into each KM mice for developing the sarcoma bearing mice model. […] Intraperitoneal injection of test substances started on the day immediately after tumor transplantation and continued once per day for 20 consecutive days.
On the day after the last test substance administration, the sarcomas were removed from the mice and weighed. The diameters of each sarcoma on the three planes (A, B, C) were measured by a vernier caliper. The volume of the sarcoma was calculated by the formula: V=(⅙)πABC.

[1] = at suitable dosage, vs saline control P<0.05
[2] = Table 12, 250 μg/kg/day, saline 1.87 ± 0.52
[3] = Table 12, 500 μg/kg/day, saline 1.87 ± 0.52
[4] = Table 11, 10 μg/kg/day i.p. 20 days, saline 5.07 ± 5.46
[5] = Table 11, 50 μg/kg/day i.p. 20 days, saline 5.07 ± 5.46
[6] = Table 9, 50 μg/kg/day i.p. 20 days, saline 55.3 ± 6.1

Molecule | Sarcoma volume (S180 sarcoma cells; Table 12, 250 μg/kg/day) | Sarcoma weight (S180 sarcoma cells; [2]) | Sarcoma volume (S180 sarcoma cells; Table 12, 500 μg/kg/day) | Sarcoma weight (S180 sarcoma cells; [3]) | also measured
LNPK [CMS-010.28] | – | – | – | – | SI (mice T-lymphocyte; Table 4, 200 μg/kg/day i.p. 20 days, saline 3.63 ± 0.69): 2.70 ± 0.37; Effect on mice T-lymphocyte transformation in vivo (mice T-lymphocyte): suppress; NK cell activity (%) (mice NK cell; Table 8, 200 μg/kg/day i.p. 20 days, saline 76.0 ± 4.3): 70.3 ± 6.7 %; Effect on mice NK cell activity in vivo (suppression) (mice NK cell; [1]): suppress
O=P1(N(CCCl)CCCl)NCCCO1 (centres unmarked) [Cyclophosphamide, reference compound] | – | – | – | – | Sarcoma volume (S180 sarcoma cells; Table 12, 40 mg/kg/day): 0.76 ± 0.66; Sarcoma weight (S180 sarcoma cells; Table 12, 40 mg/kg/day, saline 1.87 ± 0.52): 1.07 ± 0.80
VAPEEH [CMS-010.25] | 0.48 ± 0.37 | 0.65 ± 0.53 | 0.26 ± 0.21*^@ | 0.52 ± 0.38 | SI (mice T-lymphocyte; Table 5, 200 μg/kg/day i.p. 20 days, saline 3.15 ± 0.83): 2.43 ± 0.69; Effect on mice T-lymphocyte transformation in vivo (mice T-lymphocyte): suppress
TLLTEAPLNPK [CMS-010.15] | 0.41 ± 0.37 | 0.45 ± 0.35*^@ | 0.63 ± 0.35 | 0.68 ± 0.36 | –
VAPEEHP [CMS-010.22] | 0.24 ± 0.08*^@ | 0.28 ± 0.12*^@ | 0.73 ± 0.87 | 0.85 ± 0.73 | –
VAPEE [CMS-010.27] | 0.58 ± 0.58 | 0.78 ± 0.68 | 0.51 ± 0.33 | 1.05 ± 0.86 | –
NPK [CMS-010.31] | 0.25 ± 0.20*^@ | 0.27 ± 0.19*^@ | 0.43 ± 0.50 | 0.78 ± 0.89 | Sarcoma weight (S180 sarcoma cells; [4]): 1.05 ± 1.28; Sarcoma weight (S180 sarcoma cells; [5]): 1.20 ± 1.60
VAPEEHPTLLTEAPLNP [CMS-010.03] | 0.31 ± 0.22 | 0.68 ± 0.46 | 0.27 ± 0.33*^@ | 0.33 ± 0.35*^@ | –
COc1cccc2c1C(=O)c1c(O)c3c(c(O)c1C2=O)C[C@@](O)(C(=O)CO)C[C@@H]3O[C@H]1C[C@H](N)[C@H](O)[C@H](C)O1 [Adriamycin, reference compound] | – | – | – | – | Sarcoma weight (S180 sarcoma cells; Table 11, 2 mg/kg/day i.p. 20 days, saline 5.07 ± 5.46): 1.52 ± 1.75
VAPEEHPTLLTEAPL [CMS-010.07] | 0.24 ± 0.13*^@ | 0.32 ± 0.14*^@ | 0.37 ± 0.20 | 0.52 ± 0.25 | –
VALLT [CMS-010.103] | – | – | – | – | Sarcoma weight (S180 sarcoma cells; [4]): 1.72 ± 1.53; Sarcoma weight (S180 sarcoma cells; [5]): 1.48 ± 1.44
EAPLNPK [CMS-010.23] | 0.21 ± 0.15*^@ | 0.27 ± 0.18^@ | – | – | –
VAPEEHPTLL [CMS-010.16] | 0.61 ± 0.44 | 0.63 ± 0.47 | 0.92 ± 0.36 | 0.99 ± 0.42 | –
VAPEEHPTLLTEAPLN [CMS-010.05] | 0.23 ± 0.19*^@ | 0.56 ± 0.33 | 0.34 ± 0.22 | 0.47 ± 0.29*^@ | –
VAPEEHPT [CMS-010.20] | 0.88 ± 0.77 | 1.00 ± 0.76 | 0.54 ± 0.51 | 0.59 ± 0.46 | –
HPTLLTEAPLNPK [CMS-010.11] | 0.63 ± 0.40 | 0.64 ± 0.31 | 0.95 ± 0.54 | 1.14 ± 0.74 | NK cell activity (%) (mice NK cell; [6]): 63.5 ± 4.7 %; Effect on mice NK cell activity in vivo (enhancement) (mice NK cell; [1]): enhance
VAPEEHPTLLTE [CMS-010.12] | – | – | – | – | SI (mice T-lymphocyte; Table 7, 50 μg/kg/d i.p. 20 days, saline 2.96 ± 0.61): 2.12 ± 0.42; Effect on mice T-lymphocyte transformation in vivo (mice T-lymphocyte): suppress
EHPTLLTEAPLNPK [CMS-010.09] | 0.37 ± 0.44 | 0.45 ± 0.38*^@ | 0.84 ± 0.84 | 0.85 ± 0.70 | –
PTLLTEAPLNPK [CMS-010.13] | 0.91 ± 0.59 | 0.92 ± 0.56 | 0.38 ± 0.23 | 0.73 ± 0.43 | NK cell activity (%) (mice NK cell; [6]): 70.9 ± 17.5 %; Effect on mice NK cell activity in vivo (enhancement) (mice NK cell; [1]): enhance
LTEAPLNPK [CMS-010.19] | 0.46 ± 0.58 | 0.41 ± 0.45*^@ | 0.40 ± 0.42 | 0.68 ± 0.68 | –
APEEHPTLLTEAPLNPK [CMS-010.02] | 0.36 ± 0.40 | 0.68 ± 0.72 | 0.65 ± 0.67 | 0.97 ± 0.85 | –
LLTEAPLNPK [CMS-010.17] | 0.40 ± 0.24 | 0.65 ± 0.41 | 0.55 ± 0.34 | 0.91 ± 0.46 | –
VAPE [CMS-010.29] | 1.02 ± 0.66 | 1.24 ± 0.72 | 0.40 ± 0.11 | 0.55 ± 0.41 | –
VAPEEHPTL [CMS-010.18] | 0.27 ± 0.20*^@ | 0.44 ± 0.31*^@ | 0.58 ± 0.42 | 0.59 ± 0.48 | –
PEEHPTLLTEAPLNPK [CMS-010.04] | 0.17 ± 0.12*^@ | 0.27 ± 0.19*^@ | 0.40 ± 0.28 | 0.62 ± 0.44 | SI (mice T-lymphocyte; Table 6, 50 μg/kg/day i.p. 20 days, saline 2.24 ± 0.52): 1.56 ± 0.25; Effect on mice T-lymphocyte transformation in vivo (mice T-lymphocyte): suppress
VAPEEHPTLLTEAP [CMS-010.08] | 0.20 ± 0.14*^@ | 0.38 ± 0.27*^@ | 1.01 ± 0.63 | 1.05 ± 0.64 | –
TEAPLNPK [CMS-010.21] | 0.44 ± 0.22 | 0.51 ± 0.29 | 0.44 ± 0.21 | 0.44 ± 0.22*^@ | –

— patent US7718764B2, “Biologically active peptide [sequence] derivatives” (CMS Peptides Patent Holding Company Limited, priority 2004, dated 2010)
